Experimental findings from ChEMBL document CHEMBL4052676, “Anti-diabetic xanthones from the bark of Garcinia xanthochymus” (Bioorg Med Chem Lett, 2017) are described below.

Test [1] is described as follows: Inhibition of Saccharomyces cerevisiae alpha-glucosidase pre-incubated for 10 mins before p-nitrophenyl […]-D-glucopyranoside substrate addition and measured every 30 secs for 35 mins post substrate addition.
Test [2] has as its target T1, Tyrosine-protein phosphatase non-receptor type 1 (Homo sapiens, UniProt P18031).
T1 sequence (P18031 whole entry): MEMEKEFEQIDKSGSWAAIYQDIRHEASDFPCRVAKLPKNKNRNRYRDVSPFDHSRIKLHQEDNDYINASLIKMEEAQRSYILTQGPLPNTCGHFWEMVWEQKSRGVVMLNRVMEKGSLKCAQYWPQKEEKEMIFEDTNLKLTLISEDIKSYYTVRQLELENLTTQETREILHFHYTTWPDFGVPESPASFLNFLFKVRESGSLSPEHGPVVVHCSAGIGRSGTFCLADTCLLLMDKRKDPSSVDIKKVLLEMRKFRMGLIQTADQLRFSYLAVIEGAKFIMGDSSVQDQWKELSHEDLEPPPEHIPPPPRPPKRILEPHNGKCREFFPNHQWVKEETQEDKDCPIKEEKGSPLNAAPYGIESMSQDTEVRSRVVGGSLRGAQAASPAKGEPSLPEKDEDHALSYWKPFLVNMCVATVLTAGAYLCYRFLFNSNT
Description: Inhibition of human recombinant PTP1B pre-incubated for 10 mins before pnitrophenyl phosphate substrate addition and measured every 30 secs for 10 mins.

Molecules are shown by their SMILES.

One may read the IC50 as the concentration that gives 50% inhibition.

For the compound `C=CC(C)(C)c1cc(O)c2oc3c(O)c4occc4cc3c(=O)c2c1O`, the results for the 50% inhibitory concentration (IC50) in test [1] (read-out: IC50) and in test [2] (read-out: IC50) were 142 µM and 26.8 µM, respectively.
In the case of `O=c1c2cc(O)ccc2oc2ccc(O)c(O)c12`, the IC50 in test [1] (read-out: IC50) was determined as 31.4 µM; in test [2] (read-out: IC50), 120 µM.
Taken in the same sequence, the figures for `C=CC(C)(C)c1cc(O)c(O)c2c(=O)c3ccc(O)c(O)c3oc12` were 27.5 µM and 85.5 µM.
For `C=CC(C)(C)c1cc(O)c(O)c2c(=O)c3cc4c(c(O)c3oc12)OC(C)(C)C=C4`, the IC50 result in test [1] was “Not Active”; in test [2] (read-out: IC50), 49.4 µM.
Turning to `C=CC(C)(C)c1cc(O)c(O)c2c(=O)c3cc4ccoc4c(O)c3oc12`, the IC50 in test [1] (read-out: IC50) stood at 134 µM; in test [2] (read-out: IC50), 45.2 µM.
For `COc1c(O)cc2oc3cc4occc4c(O)c3c(=O)c2c1C/C=C(\C)CCC=C(C)C`, the IC50 worked out at 94.2 µM in test [1] (read-out: IC50) and 55.1 µM in test [2] (read-out: IC50).
`O=c1c2cc(O)ccc2oc2cccc(O)c12`: the values for the IC50 result in test [1] and in test [2] (read-out: IC50) were “Not Active” and 150 µM, respectively.
`O=c1c2cccc(O)c2oc2c(O)ccc(O)c12`: the IC50 was 358 µM in test [1] (read-out: IC50) and 148 µM in test [2] (read-out: IC50).
Regarding `C=CC(C)(C)c1cc(O)c2oc3c(O)c4c(cc3c(=O)c2c1O)C=CC(C)(C)O4`, the IC50 in test [1] (read-out: IC50) was determined as 36.7 µM; in test [2] (read-out: IC50), 8 µM.
`C=CC(C)(C)c1cc(O)c(O)c2c(=O)c3cccc(O)c3oc12`: the IC50 was 29.8 µM in test [1] (read-out: IC50) and 73.2 µM in test [2] (read-out: IC50).
With `C[C@H]1O[C@H](O[C@H]2[C@H](O)[C@@H](O)[C@@H](O[C@H]3[C@H](O)[C@@H](O)C(O)O[C@@H]3CO)O[C@@H]2CO)[C@H](O)[C@@H](O)[C@@H]1N[C@H]1C=C(CO)[C@@H](O)[C@H](O)[C@H]1O` (stereo not given in full) [ACARBOSE], the IC50 in test [1] (read-out: IC50) is 900 µM.
`C=CC(C)(C)c1cc(O)c2oc3c(O)c(O)ccc3c(=O)c2c1O`: the IC50 in test [1] (read-out: IC50) came to 4.1 µM; in test [2] (read-out: IC50), 53 µM.
`C=CC(C)(C)c1cc(O)c2oc3c(O)cccc3c(=O)c2c1O`: the IC50 is 85.5 µM in test [1] (read-out: IC50) and “Not Active” in test [2].
